Source: patent US4526989A, “1,4-Bis (substituted-amino)-5,8-dihydroxy-anthraquinones and leuco bases thereof” (priority 1979, dated 1985)
Read-outs that look alike come from different tables or passages of the source.

Assays:
[1] = tested on: Ridgway Osteogenic Sarcoma; test: Ridgway Osteogenic Sarcoma; format: in vivo, AKD2 F1 /J mice; details: for % Inhibition Tumor Growth / % Showing 50% Tumor Regression / No. Without Tumors/No. Survivors / Tumor: 7 days after therapy stopped; for Median Survival / T/C: 63 days after therapy stopped
Protocol: The animals used are AKD2 F1 /J mice, all of the same sex, weighing a minimim of 17 g. and all within a three-gram weight range. There are normally 8 animals per test group. The tumor is administered subcutaneously by trocar as five 2-mm. fragments per mouse. The test compounds are administered intraperitoneally every 4 days for a total of 6 inoculations beginning on day 15 (relative to tumor inoculation) at various doses. The animals are weighed and survivors are recorded on a regular basis for 90 days. The regression of tumors is recorded in all test animals.

[2] = tested on: lymphocytic leukemia P388; test: Lymphocytic leukemia P388 test (oral drug administration); format: in vivo, DBA/2 mice; details: for T/C × 100: efficacy ≥125%
Protocol: The animals used are DBA/2 mice all of one sex, weighing a minimum of 17 g. and all within a 3 gram weight range. There are 5 or 6 animals per test group. The tumor transplant is by intraperitoneal injection of 0.1 ml. of dilute ascitic fluid containing 10^6 cells of lymphocytic leukemia P388. The test compounds are administered intraperitoneally on days one, 5 and 9 (relative to tumor inoculation) at various doses. The animals are weighed and survivors are recorded on a regular basis for 30 days. The median survival time and the ratio of survival time for treated (T)/control (C) animals are calculated. […] The results of this test with representative compounds of the present invention appear in Table I. The criterion for efficacy is T/C×100≥125%.
The procedure used is the same as for the previously described test for lymphocytic leukemia P388 except that the test compounds are administered orally at various doses rather than intraperitoneally. The criterion for efficacy is T/C×100≥125%.

melanotic melanoma B16 = test: Melanotic Melanoma B16 test; format: in vivo, C57BC/6 mice; details: for response vs control in vivo at 3 mg/kg / response vs control in vivo at 6 mg/kg / response vs control in vivo at 12 mg/kg / response vs control in vivo at 25 mg/kg: Mus musculus, ip, read-out: T/C × 100
Procedure, shortened: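 C57BC/6 mice (10 per group) were implanted i.p. with B16 melanoma homogenate, then dosed i.p. on days 1–9 at various doses.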

[3] = tested on: lymphocytic leukemia P388; test: Lymphocytic leukemia P388 test (intraperitoneal administration); format: in vivo, DBA/2 mice; details: days 1, 5 and 9
Procedure, shortened: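 DBA/2 mice, single sex, 5-6 per group, inoculated i.p. with 10^6 P388 leukemia cells. Compounds given i.p. at various doses on days 1, 5 and 9; survival followed 30 days, reporting median survival time and treated/control (T/C) survival ratio.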

[4] = Storage behaviour of solid; format: physicochemical
[5] = 3 mg./kg. i.p., days 1 through 9
[6] = 6 mg./kg. i.p., days 1 through 9
[7] = 12 mg./kg. i.p., days 1 through 9
[8] = 25 mg./kg. i.p., days 1 through 9
[9] = 6 mg./kg. i.p., days 1 through 9, efficacy ≥125%
[10] = 12 mg./kg. i.p., days 1 through 9, efficacy ≥125%
[11] = 25 mg./kg. i.p., days 1 through 9, efficacy ≥125%
[12] = Mus musculus, P388, ip, 3 mg./kg. i.p., efficacy ≥125%, read-out: T/C × 100
[13] = Mus musculus, P388, ip, 6 mg./kg. i.p., efficacy ≥125%, read-out: T/C × 100
[14] = Mus musculus, P388, ip, 12 mg./kg. i.p., efficacy ≥125%, read-out: T/C × 100
[15] = Mus musculus, P388, ip, 25 mg./kg. i.p., efficacy ≥125%, read-out: T/C × 100
[16] = Mus musculus, P388, ip, 50 mg./kg. i.p., efficacy ≥125%, read-out: T/C × 100

CN(C)CCNc1ccc(NCCN(C)C)c2c1C(=O)c1c(O)ccc(O)c1C2=O [1,4-Bis[(2-dimethylaminoethyl)amino]-5,8-dihydroxyanthraquinone]
% Inhibition Tumor Growth ([1]; 6 mg./kg. i.p.): 19% | % Showing 50% Tumor Regression ([1]; 6 mg./kg. i.p.): 0% | No. Without Tumors/No. Survivors ([1]; 6 mg./kg. i.p.): 0/6 | Tumor ([1]; 6 mg./kg. i.p.): 960 (mm.) 2 | Median Survival ([1]; 6 mg./kg. i.p.): 57.5 days | T/C ([1]; 6 mg./kg. i.p.): 129% | % Inhibition Tumor Growth ([1]; 12 mg./kg. i.p.): 61% | % Showing 50% Tumor Regression ([1]; 12 mg./kg. i.p.): 0% | No. Without Tumors/No. Survivors ([1]; 12 mg./kg. i.p.): 0/3 | Tumor ([1]; 12 mg./kg. i.p.): 470 (mm.) 2 | Median Survival ([1]; 12 mg./kg. i.p.): 37 days | T/C ([1]; 12 mg./kg. i.p.): 83% | % Inhibition Tumor Growth ([1]; 25 mg./kg. i.p.): 41% | % Showing 50% Tumor Regression ([1]; 25 mg./kg. i.p.): 0% | No. Without Tumors/No. Survivors ([1]; 25 mg./kg. i.p.): 0/8 | Tumor ([1]; 25 mg./kg. i.p.): 653 (mm.) 2 | Median Survival ([1]; 25 mg./kg. i.p.): 78 days | T/C ([1]; 25 mg./kg. i.p.): 175% | % Inhibition Tumor Growth ([1]; 50 mg./kg. i.p.): 78% | % Showing 50% Tumor Regression ([1]; 50 mg./kg. i.p.): 25% | No. Without Tumors/No. Survivors ([1]; 50 mg./kg. i.p.): 2/6 | Tumor ([1]; 50 mg./kg. i.p.): 263 (mm.) 2 | Median Survival ([1]; 50 mg./kg. i.p.): 92.5 days | T/C ([1]; 50 mg./kg. i.p.): 208% | % Inhibition Tumor Growth ([1]; 100 mg./kg. i.p.): 96% | % Showing 50% Tumor Regression ([1]; 100 mg./kg. i.p.): 28% | No. Without Tumors/No. Survivors ([1]; 100 mg./kg. i.p.): 2/5 | Tumor ([1]; 100 mg./kg. i.p.): 52 (mm.) 2 | Median Survival ([1]; 100 mg./kg. i.p.): 48 days | T/C ([1]; 100 mg./kg. i.p.): 108% | Median Survival Time ([2]; 3 mg./kg. oral): 15.0 days | T/C × 100 ([2]; 3 mg./kg. oral): 130% | Median Survival Time ([2]; 6 mg./kg. oral): 16.0 days | T/C × 100 ([2]; 6 mg./kg. oral): 139% | Median Survival Time ([2]; 12 mg./kg. oral): 16.0 days | T/C × 100 ([2]; 12 mg./kg. oral): 139% | Median Survival Time (melanotic melanoma B16; [5]): 25.5 days | Median Survival Time (melanotic melanoma B16; [6]): 27.0 days | Median Survival Time (melanotic melanoma B16; [7]): 28.5 days | Median Survival Time (melanotic melanoma B16; [8]): 24.5 days | response vs control in vivo at 3 mg/kg (melanotic melanoma B16): 142% | response vs control in vivo at 6 mg/kg (melanotic melanoma B16; [9]): 150% | response vs control in vivo at 12 mg/kg (melanotic melanoma B16; [10]): 158% | response vs control in vivo at 25 mg/kg (melanotic melanoma B16; [11]): 136% | Median Survival Time ([3]; 3 mg./kg. i.p.): 19.5 days | Median Survival Time ([3]; 6 mg./kg. i.p.): 21.0 days | Median Survival Time ([3]; 12 mg./kg. i.p.): 23.0 days | Median Survival Time ([3]; 25 mg./kg. i.p.): 20.5 days | Median Survival Time ([3]; 50 mg./kg. i.p.): 25.0 days | response vs control in vivo at 3 mg/kg [3, 12]: 217% | response vs control in vivo at 6 mg/kg [3, 13]: 233% | response vs control in vivo at 12 mg/kg [3, 14]: 256% | response vs control in vivo at 25 mg/kg [3, 15]: 228% | response vs control in vivo at 50 mg/kg [3, 16]: 278%

O=C1C2=C(NCCNCCNCCO)CCC(NCCNCCNCCO)=C2C(=O)c2c(O)ccc(O)c21 [Example 33, Leuco-1,4-bis[2-[2-(2-hydroxyethylamino)ethylamino]ethylamino]-5,8-dihydroxyanthraquinone]
storage behaviour of solid ([4]; stored at 25° C.): coalesces into a solid cake | storage behaviour of solid ([4]; stored at -25° C.): remains granular

CN(C)CCNC1=C2C(=O)c3c(O)ccc(O)c3C(=O)C2=C(NCCN(C)C)CC1 [Leuco-1,4-bis[(2-dimethylaminoethyl)amino]-5,8-dihydroxy-anthraquinone]
Median Survival Time ([2]; 12 mg./kg. oral): 12.5 days | T/C × 100 ([2]; 12 mg./kg. oral): 125% | Median Survival Time ([2]; 25 mg./kg. oral): 13.5 days | T/C × 100 ([2]; 25 mg./kg. oral): 135% | Median Survival Time ([2]; 50 mg./kg. oral): 16.0 days | T/C × 100 ([2]; 50 mg./kg. oral): 160% | Median Survival Time (melanotic melanoma B16; [5]): 21.0 days | Median Survival Time (melanotic melanoma B16; [6]): 21.5 days | Median Survival Time (melanotic melanoma B16; [7]): 23.0 days | Median Survival Time (melanotic melanoma B16; [8]): 25.0 days | response vs control in vivo at 3 mg/kg (melanotic melanoma B16; 3 mg./kg. i.p., days 1 through 9, efficacy ≥125%): 127% | response vs control in vivo at 6 mg/kg (melanotic melanoma B16; [9]): 130% | response vs control in vivo at 12 mg/kg (melanotic melanoma B16; [10]): 139% | response vs control in vivo at 25 mg/kg (melanotic melanoma B16; [11]): 151% | Median Survival Time ([3]; 1.5 mg./kg. i.p.): 13.0 days | Median Survival Time ([3]; 3 mg./kg. i.p.): 14.5 days | Median Survival Time ([3]; 6 mg./kg. i.p.): 16.0 days | Median Survival Time ([3]; 12 mg./kg. i.p.): 17.5 days | Median Survival Time ([3]; 25 mg./kg. i.p.): 19.0 days | Median Survival Time ([3]; 50 mg./kg. i.p.): 24.5 days | Median Survival Time ([3]; 100 mg./kg. i.p.): 24.5 days | response vs control in vivo at 1.5 mg/kg ([3]; Mus musculus, P388, ip, 1.5 mg./kg. i.p., efficacy ≥125%, read-out: T/C × 100): 130% | response vs control in vivo at 3 mg/kg [3, 12]: 145% | response vs control in vivo at 6 mg/kg [3, 13]: 160% | response vs control in vivo at 12 mg/kg [3, 14]: 175% | response vs control in vivo at 25 mg/kg [3, 15]: 190% | response vs control in vivo at 50 mg/kg [3, 16]: 245% | response vs control in vivo at 100 mg/kg ([3]; Mus musculus, P388, ip, 100 mg./kg. i.p., efficacy ≥125%, read-out: T/C × 100): 245%
